Test [1] concerns primary hippocampal neurons. As to the kind of experiment: Hippocampal neuronal growth: neurite outgrowth of cultured primary hippocampal neurons, anti-tau immunostaining, confocal microscopy. The test is classed as cell-based, Sprague-Dawley rats. To be noted: 48 h. On the procedure: In certain embodiments, the activity of the compounds provided herein to modulate neuronal growth, can be tested using cultured primary hippocampal neurons. Primary hippocampal neurons are cultured on poly-DL-ornithine-coated coverslips with or without each compound. After 48 h, the neurons are fixed, immunostained with anti-tau antibodies, and examined by confocal fluorescence microscopy. The effect of sulfated tetrasaccharide CS-E on neuronal morphology and growth is illustrated in FIGS. 1A-B. The number of neurites emanating from the cell body was enhanced, and the growth of the major extension was stimulated by 39.3±3.6% relative to the poly-DL-omithine control.
Hippocampal Neuronal Cultures. Hippocampal neuronal cultures were prepared using a modified version of the Goslin and Banker protocol (Goslin, K.; Banker, G. In Culturing Nerve Cells; Banker, G.; Goslin, K.; Eds.; MIT Press: Cambridge, Mass., 1991; pp 251-281). Embryos at the E18 stage were obtained from timed-pregnant Sprague-Dawley rats, and the hippocampus from each embryo was dissected. All the hippocampi from one preparation were transferred to a 15 mL conical tube containing 4.5 mL of ice-cold Calcium and Magnesium Free-Hank's Balanced Salt Solution (CMF-HBSS) (GIBCO). Trypsin (2.5%, no EDTA; GIBCO) was added to 5 mL, and the tissue was digested for 15 min at 37° C. The trypsin solution was removed and the tissue rinsed with 5 mL of CMF-HBSS three times. The tissue was then dissociated in 1 mL of CMF-HBSS by passing through a P1000 pipet tip twenty times. The cells were counted with a hemacytometer and plated on glass coverslips at 80 cells/mm2 and cultivated in minimal Eagle's Medium (MEM) (GIBCO) supplemented with the N2 mixture (GIBCO) and 0.1 mM pyruvate. The cultures were maintained in 5% CO2 at 37° C. Glass coverslips were coated as described by Clement et. al. (Clement, A.M.; Nadanaka, S.; Masayama, K.; Mandl, C.; Sugahara, K.; Faissner, A. J. Biol. Chem. 1998, 273, 28444-28453) Briefly, coverslips were precoated with 0.015 mg/mL poly-DL-ornithine (SIGMA) for 1 h at 37° C./5% CO2, washed three times with double distilled H2O, and coated with 0.5 mg/mL of compounds 1-3 in PBS overnight at 37° C./5% CO2. The coverslips were then washed three times with PBS and flooded with MEM+N2 media.
Immunocytochemistry of Hippocampal Neuronal Cultures. After 48 h in culture, hippocampal neurons on coverslips were used for immunostaining. […]
Morphometric Analysis. For quantitative analysis, 50 cells were analyzed per coverslip. Only cells with neurites longer than one cell body diameter were counted. The length of the longest neurite from stained cells was measured using N1H Image 1.52 software. […]

The subject of test [2] is dorsal root ganglion (DRG) neurons. The experiment in a line: Outgrowth of cultured dorsal root ganglion (DRG) neurons from the spinal cord. In kind it is cell-based. The source says:
(§1) Effect of disaccharide CS-E, tetrasaccharides CS-E, and unsulfated tetrasaccharide on the growth of dopaminergic neurons as well as dorsal root ganglion (DRG) neurons from the spinal cord is illustrated in FIGS. 2A-B and 4A-B, respectively. In certain embodiments, the CS-E tetrasaccharide promoted the outgrowth of cultured dopaminergic and DRG neurons by 30-40% relative to the untreated controls. FIGS. 5 and 7 illustrate binding of tetrasaccharides CS-E, CS-C and disaccharide CS-E to tumor necrosis factor-α and midkine, respectively.

The next test concerns dopaminergic neurons. The experiment in a line: Outgrowth of cultured dopaminergic neurons. In kind it is cell-based.
Text: as §1

The mark [3] stands for this setting: primary hippocampal neurons on poly-DL-ornithine-coated coverslips with compound.

For the compound `C=CCO[C@@H]1O[C@H](COS(=O)(=O)[O-])[C@H](OS(=O)(=O)[O-])[C@H](O[C@@H]2O[C@H](C(=O)[O-])[C@@H](O[C@@H]3O[C@H](COS(=O)(=O)[O-])[C@H](OS(=O)(=O)[O-])[C@H](O[C@@H]4O[C@H](C(=O)[O-])[C@@H](O)[C@H](O)[C@H]4O)[C@H]3NC(C)=O)[C@H](O)[C@H]2O)[C@H]1NC(C)=O.[Na+].[Na+].[Na+].[Na+].[Na+].[Na+]` [sulfated tetrasaccharide CS-E, Allyl (sodium β-D-glucopyranosyluronate)-(1→3)-(4,6-di-O-sodiumsulfonato-2-deoxy-2-acetamido-β-D-galactopyranosyl)-(1→4)-(sodium β-D-glucopyranosyluronate)-(1→3)-4,6-di-O-sodium sulfonato-2-deoxy-2-acetamido-β-D-galactopyranoside], the “growth of the major extension stimulated relative to the poly-DL-ornithine control” value in test [1] (primary hippocampal neurons on poly-DL-ornithine-coated coverslips with compound (0.5 mg/mL coating)) turned out to be 39.3±3.6%. Besides, the “number of neurites emanating from the cell body” value in test [1] (setting [3]) is “enhanced”. Besides, the “outgrowth promoted relative to the untreated controls” value (in test [2]; in the test with dopaminergic neurons) was 30-40% in each case.
For `C=CCO[C@@H]1O[C@H](CO)[C@H](O)[C@H](O[C@@H]2O[C@H](C(=O)[O-])[C@@H](O[C@@H]3O[C@H](CO)[C@H](O)[C@H](O[C@@H]4O[C@H](C(=O)[O-])[C@@H](O)[C@H](O)[C@H]4O)[C@H]3NC(C)=O)[C@H](O)[C@H]2O)[C@H]1NC(C)=O.[Na+].[Na+]` [unsulfated tetrasaccharide, Allyl (sodium β-D-glucopyranosyluronate)-(1→3)-(2-deoxy-2-acetamido-β-D-galactopyranosyl)-(1→4)-(sodium β-D-glucopyranosyluronate)-(1→3)-2-deoxy-2-acetamido-β-D-galactopyranoside], the “effect on neuronal outgrowth” value in test [1] (setting [3]) is listed as “no significant effect”.
For “Allyl (sodium β-D-glucopyranosyluronate)-(1→3)-4,6-di-O-sodium sulfonato-2-deoxy-2-acetamido-β-D-galactopyranoside [sulfated disaccharide]”, in test [1] (setting [3]), the “effect on neuronal outgrowth” value is recorded as “no significant effect”.

These data come from patent US7638503B2, “Small molecule stimulators of neuronal growth” (California Institute of Technology, priority 2004, dated 2009).
